From patent publication US10421761B2, “Compounds for kinase modulation, and indications therefor” (Plexxikon Inc., priority 2013, dated 2019)
Read-outs that look alike come from different tables or passages of the source.

How the values were obtained:
[1] = test system: A375 (BRAF V600E) cell line; assay: A375 P-ERK inhibition assay (AlphaScreen); format: cell-based, human; conditions: Homo sapiens, A-375; A375_P-ERK
Protocol: (§1) Phospho-ERK AlphaScreen® assay. To determine the effects of compound treatment upon phosphorylation of ERK1/2, cells were plated in a 96-well dish and treated with an 8-point titration of compound for one hour at 37° C. before lysis. To detect pERK, cell lysates were incubated with streptavidin-coated AlphaScreen® donor beads, anti-mouse IgG AlphaScreen® acceptor beads, a biotinylated anti-ERK1/2 rabbit antibody, and a mouse antibody that recognizes ERK1/2 only when it is phosphorylated on Thr202 and Tyr204. The biotinylated ERK1/2 antibody binds to both the streptavidin-coated AlphaScreen® donor beads and to ERK1/2 (regardless of its phosphorylation state), and the phospho-ERK1/2 antibody binds to the acceptor beads and to ERK1/2 that is phosphorylated at Thr202/Tyr204. An increase in ERK1/2 phosphorylation at Thr202/Tyr204 brings the donor and acceptor AlphaScreen® beads into close proximity, generating a signal that can be quantified on an EnVision reader (Perkin Elmer).

BRAF V600E = molecular target: T1, BRAF V600E (Homo sapiens, UniProt P15056, V600E); assay: BRAF V600E biochemical kinase activity assay (AlphaScreen, biotin-MEK1 substrate); conditions: BRAF V600E biochemical inhibitory activity
T1 construct: purchased Upstate Biotechnology
T1 sequence (P15056 whole entry V600E): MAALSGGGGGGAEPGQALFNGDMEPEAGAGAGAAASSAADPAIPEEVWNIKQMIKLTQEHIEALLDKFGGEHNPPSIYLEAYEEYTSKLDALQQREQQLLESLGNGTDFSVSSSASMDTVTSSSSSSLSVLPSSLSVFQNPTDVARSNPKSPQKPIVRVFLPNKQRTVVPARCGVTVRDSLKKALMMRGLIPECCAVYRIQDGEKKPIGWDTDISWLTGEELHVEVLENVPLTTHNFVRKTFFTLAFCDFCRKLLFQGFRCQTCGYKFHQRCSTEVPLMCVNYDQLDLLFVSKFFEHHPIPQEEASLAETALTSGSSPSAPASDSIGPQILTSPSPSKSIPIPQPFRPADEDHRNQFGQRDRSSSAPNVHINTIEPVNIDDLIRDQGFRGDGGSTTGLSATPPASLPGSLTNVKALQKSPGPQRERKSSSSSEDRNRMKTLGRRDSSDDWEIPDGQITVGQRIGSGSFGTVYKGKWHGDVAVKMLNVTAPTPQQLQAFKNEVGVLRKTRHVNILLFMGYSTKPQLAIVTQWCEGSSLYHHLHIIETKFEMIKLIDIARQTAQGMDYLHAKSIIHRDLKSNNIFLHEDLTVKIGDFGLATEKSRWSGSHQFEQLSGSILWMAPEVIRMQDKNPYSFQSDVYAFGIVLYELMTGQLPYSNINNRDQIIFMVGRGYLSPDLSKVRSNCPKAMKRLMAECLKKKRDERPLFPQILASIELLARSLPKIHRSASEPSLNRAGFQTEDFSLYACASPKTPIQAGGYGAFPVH
Protocol: Compounds to be tested are diluted in dimethyl sulfoxide to a concentration of 0.1 mM. These are serially diluted 15 μL into 30 μL of dimethyl sulfoxide seven times in 96 well plates for a total of 8 dilution points, and for each dilution point 1 μL is added to a well of an assay plate. […] The reaction is started with addition of 10 μL of 200 μM ATP (i.e. final 100 μM ATP). After incubation of the kinase reaction for 45 minutes at room temperature, 5 μL/well of Stop Solution is added (25 mM Hepes pH 7.5, 100 mM EDTA, 0.01% BSA with donor beads (Streptavidin coated beads, Perkin Elmer), acceptor beads (Protein A coated, Perkin Elmer), and anti-phosphor MEK1/2 antibody (CellSignal), each at final concentration 10 μg/mL). The plates are incubated for 3 hours at room temperature and read on Envision reader (Perkin Elmer). Phosphorylation of Mek1 results in binding of the anti-phosphor-MEK1/2antibody and association of the donor and acceptor beads such that signal correlates with kinase activity. The signal versus compound concentration is used to determine the IC50.
The in vitro RAF kinase activities were determined by measuring phosphorylation of a biotinylated substrate peptide as described previously (Tsai, J. et al. Proc Natl Acad Sci USA 105, 3041-3046 (2008)). Compounds of formula (I), e.g., compound A, was also tested against a panel of 287 kinases at concentrations of 1 μM in duplicate. Kinases inhibited by over 50% were followed up by IC50 determination. The 287 kinases represent all major branches of the kinome phylogenetic tree. The inhibition screen of 287 kinases was carried out under contract as complementary panels at Invitrogen (Life Technologies, Wis., USA) SelectScreen™ profiling service, DiscoverX (CA, USA) KINOMEScan™ service, and Reaction Biology Corporation (PA, USA) Kinase HotSpot℠ service.

[2] = test system: IPC-298 (NRAS Q61L) cell line; assay: IPC-298 P-ERK cell activation assay (AlphaScreen); format: cell-based, human; conditions: Homo sapiens; P-ERK cell activation, IPC-298; numeric bounds; read-out: Cell activity (EC50 μM) IPC-298_P-ERK
Protocol: (§2) B9 is a squamous cell carcinoma cell line expressing activated HRAS that was isolated from a DMBA/TPA-induced mouse model of skin carcinogenesis (Stoler, et al. The Journal of Cell Biology, 1993, 122(5), 1103-17). IPC-298 is a human melanoma cell line that expresses activated NRAS (Aubert, et al. International Journal of Cancer, 1993, 54(5), 784-92). To determine whether compounds induce phosphorylated ERK and MEK, cells are plated in a 96-well dish and treated with an 8-point titration of compound for one hour at 37° C. The media is then removed and the cells are incubated with lysis buffer containing protease and phosphatase inhibitors. Phosphorylated ERK and MEK in the resulting lysates is detected using AlphaScreen™ technology. To detect phosphorylated ERK, cell lysates are incubated with streptavidin-coated donor beads, anti-mouse IgG acceptor beads, a biotinylated anti-ERK1/2 rabbit antibody, and a mouse antibody that recognizes ERK1/2 only when it is phosphorylated on Thr202 and Tyr204. The biotinylated ERK1/2 antibody will bind to both the streptavidin-coated donor beads and to ERK1/2 (regardless of its phosphorylation state), and the phospho-ERK1/2 antibody will bind to the acceptor beads and to ERK1/2 that is phosphorylated at Thr202/Tyr204. Excitation of the beads with laser light at 680 nm produces singlet oxygen, which is rapidly quenched unless the beads are in close proximity. When ERK is phosphorylated, both antibodies can bind the same protein, bringing the donor and acceptor beads into close proximity, producing a signal that can be measured at 580 nm. MEK phosphorylation is detected using a similar approach, only with antibodies directed against total MEK1/2 and MEK1/2 that is phosphorylated at Ser217 and Ser221.
as §1

B9 (HRAS Q61L) cell line = assay: B9 P-ERK cell activation assay (AlphaScreen); format: cell-based, mouse; conditions: Mus musculus, P-ERK cell activation, B9, read-out: Cell activity (EC50 μM) B9_pERK
Protocol: as §2, §1

SMILES | IC50 [1] [µM] | IC50 (BRAF V600E) [µM] | EC50 [2] [µM] | EC50 (B9 (HRAS Q61L) cell line; numeric bounds) [µM] | EC50 (B9 (HRAS Q61L) cell line; class symbols) [µM]
O=C(c1cccc(NS(=O)(=O)N2CCCC2)c1F)c1c[nH]c2ncnc(NCC(O)CO)c12 (centres unmarked) [P-2096, N-[3-[4-(2,3-dihydroxypropylamino)-7H-pyrrolo[2,3-d]pyrimidine-5-carbonyl]-2-fluoro-phenyl]pyrrolidine-1-sulfonamide] | > 10 | 0.0001 to 1 | > 10 | > 10 | –
CCN(C)S(=O)(=O)Nc1cccc(C(=O)c2c[nH]c3ncnc(NC4CC4)c23)c1F [P-2063, 4-(cyclopropylamino)-5-[3-[[ethyl(methyl)sulfamoyl]amino]-2-fluoro-benzoyl]-7H-pyrrolo[2,3-d]pyrimidine] | 0.0001 to 1 | 0.0001 to 1 | > 10 | > 10 | –
CC(=O)Nc1ccc(NC(=O)c2c(F)ccc(NS(=O)(=O)N3CCCCC3)c2F)cn1 [P-2033, N-(6-acetamido-3-pyridyl)-2,6-difluoro-3-(1-piperidylsulfonylamino)benzamide] | > 10 | 0.0001 to 1 | > 10 | > 10 | –
COC(=O)N[C@@H](C)CNc1nccc(-c2nn(C(C)C)cc2-c2cc(Cl)cc(NS(=O)(=O)N(C)C)c2F)n1 [P-2166, methyl N-[(1S)-2-[[4-[4-[5-chloro-3-(dimethylsulfamoylamino)-2-fluoro-phenyl]-1-isopropyl-pyrazol-3-yl]pyrimidin-2-yl]amino]-1-methyl-ethyl]carbamate] | 0.0001 to 1 | 0.0001 to 1 | > 10 | – | 0.0001 to 1
CCCN(C)S(=O)(=O)Nc1cccc(C(=O)c2c[nH]c3ncnc(C)c23)c1F [P-2086, 5-[2-fluoro-3-[[methyl(propyl)sulfamoyl]amino]benzoyl]-4-methyl-7H-pyrrolo[2,3-d]pyrimidine] | 0.0001 to 1 | 0.0001 to 1 | > 10 | > 10 | –
CC(C)(C)c1nc(-c2cccc(NS(=O)(=O)N3CCCC3)c2F)c(-c2ncnc3[nH]cnc23)s1 [P-2125, N-[3-[2-tert-butyl-5-(9H-purin-6-yl)thiazol-4-yl]-2-fluoro-phenyl]pyrrolidine-1-sulfonamide] | 0.0001 to 1 | 0.0001 to 1 | > 1 | > 10 | –
COc1ncnc2[nH]cc(C(=O)c3cccc(NS(=O)(=O)N4CCCC4)c3F)c12 [P-2084, N-[2-fluoro-3-(4-methoxy-7H-pyrrolo[2,3-d]pyrimidine-5-carbonyl)phenyl]pyrrolidine-1-sulfonamide] | 0.0001 to 1 | 0.0001 to 1 | > 10 | > 10 | –
O=C(c1cc(Cl)cc(NS(=O)(=O)N2CC[C@@H](F)C2)c1F)c1c[nH]c2ncc(-c3cnc(C4CC4)nc3)cc12 [P-2174, (3R)—N-[5-chloro-3-[5-(2-cyclopropylpyrimidin-5-yl)-1H-pyrrolo[2,3-b]pyridine-3-carbonyl]-2-fluoro-phenyl]-3-fluoro-pyrrolidine-1-sulfonamide] | 0.0001 to 1 | 0.0001 to 1 | > 10 | > 10 | –
CCN(C)S(=O)(=O)Nc1cccc(C(=O)c2c[nH]c3ncnc(NCC(F)(F)F)c23)c1F [P-2065, 5-[3-[[ethyl(methyl)sulfamoyl]amino]-2-fluoro-benzoyl]-4-(2,2,2-trifluoroethylamino)-7H-pyrrolo[2,3-d]pyrimidine] | 0.0001 to 1 | 0.0001 to 1 | > 10 | > 10 | –
[2H]C1([2H])CCC([2H])([2H])N1S(=O)(=O)Nc1cc(Cl)cc(C(=O)c2c[nH]c3ncc(-c4cnc(C5CC5)nc4)cc23)c1F [P-2176, N-[5-chloro-3-[5-(2-cyclopropylpyrimidin-5-yl)-1H-pyrrolo[2,3-b]pyridine-3-carbonyl]-2-fluoro-phenyl]-2,2,5,5-tetradeuterio-pyrrolidine-1-sulfonamide] | 0.0001 to 1 | 0.0001 to 1 | > 10 | > 10 | –
CCC(C)S(=O)(=O)Nc1cccc(-c2nc(C(C)(C)C)sc2-c2ccnc(N)n2)c1F (centres unmarked) [P-2106, N-[3-[5-(2-aminopyrimidin-4-yl)-2-tert-butyl-thiazol-4-yl]-2-fluoro-phenyl]butane-2-sulfonamide] | 0.0001 to 1 | 0.0001 to 1 | > 10 | > 10 | –

More lines, now with the values ahead:

IC50 [1] [µM] | IC50 (BRAF V600E) [µM] | EC50 [2] [µM] | EC50 (B9 (HRAS Q61L) cell line; numeric bounds) [µM] | EC50 (B9 (HRAS Q61L) cell line; class symbols) [µM] | SMILES
0.0001 to 1 | 0.0001 to 1 | > 10 | > 10 | – | CC(C)Nc1ncnc2[nH]cc(C(=O)c3c(F)ccc(NS(=O)(=O)N4CCOCC4)c3F)c12 [P-2044, N-[2,4-difluoro-3-[4-(isopropylamino)-7H-pyrrolo[2,3-d]pyrimidine-5-carbonyl]phenyl]morpholine-4-sulfonamide]
0.0001 to 1 | 0.0001 to 1 | > 10 | > 10 | – | Cc1ncnc2[nH]cc(C(=O)c3cccc(NS(=O)(=O)N4CCCC4)c3F)c12 [P-2076, N-[2-fluoro-3-(4-methyl-7H-pyrrolo[2,3-d]pyrimidine-5-carbonyl)phenyl]pyrrolidine-1-sulfonamide]
1 to 10 | 1 to 10 | > 10 | > 10 | – | O=C(c1c(F)ccc(NS(=O)(=O)C2CCC2)c1F)c1c[nH]c2ncncc12 [P-2030, N-[2,4-difluoro-3-(7H-pyrrolo[2,3-d]pyrimidine-5-carbonyl)phenyl]cyclobutanesulfonamide]
0.0001 to 1 | 0.0001 to 1 | > 10 | > 10 | – | CCN(C)S(=O)(=O)Nc1ccc(F)c(C(=O)c2c[nH]c3ncnc(N[C@H](C)C4CC4)c23)c1F [P-2118, 4-[[(1R)-1-cyclopropylethyl]amino]-5-[3-[[ethyl(methyl)sulfamoyl]amino]-2,6-difluoro-benzoyl]-7H-pyrrolo[2,3-d]pyrimidine]
0.0001 to 1 | 0.0001 to 1 | > 10 | > 10 | – | CCN(CC)S(=O)(=O)Nc1ccc(F)c(C(=O)c2c[nH]c3ncnc(NC(C)C)c23)c1F [P-2042, 5-[3-(diethylsulfamoylamino)-2,6-difluoro-benzoyl]-4-(isopropylamino)-7H-pyrrolo[2,3-d]pyrimidine]
0.0001 to 1 | 0.0001 to 1 | > 10 | > 10 | – | CCN(C)S(=O)(=O)Nc1ccc(F)c(C(=O)c2c[nH]c3ncnc(NCCOC)c23)c1F [P-2100, 5-[3-[[ethyl(methyl)sulfamoyl]amino]-2,6-difluoro-benzoyl]-4-(2-methoxyethylamino)-7H-pyrrolo[2,3-d]pyrimidine]
